Source: patent US20250034151A1, “WEE1 INHIBITOR, PREPARATION THEREFOR, AND USE THEREOF” (JIANGSU TASLY DIYI PHARMACEUTICAL CO., LTD., priority 2022, published 2025)
Like-named read-outs stand apart in the source and are kept apart here.

Experiments:
MIA PaCa2 cells = assay: Anti-proliferative effect on MIA PaCa2 cells by Cell Titer-Glo; assay type: cell-based; conditions: Homo sapiens, MIA PaCa-2, 72 h, 3 days, read-out: MIA PaCa 2 (IC50, inhibition of proliferation in vitro)
Experimental: (§1) Test Example 2: Evaluation of Cell Proliferation Inhibitory Activity
2. Evaluation of the Anti-Proliferative Effect of Compounds on MIA PaCa2 Cells by the Cell Titer-Glo Method
(§2) Compound solutions of different concentration gradients were prepared. […] The cell growth group without compound was used as a positive control (maximum signal control) and the medium was used as a negative control (minimum signal control), while ensuring that the final level of DMSO in each reaction well was 0.2%. After removing the medium from the 384-well plate, 25 ul of the configured compound at different concentrations was transferred into the well plate and the compound and cells were incubated in the cell incubator at 37° C. with 5% CO2 for 3 days.
The 384-well plates were removed from the cell incubator and allowed to equilibrate for 1 h to room temperature. 25 ul of Cell Titer-Glo assay was added to each well, lysed on a shaker for 2 min and then read out (Luminescence) using a BMG PHERAStar after 10 min incubation. Calculate the inhibition rate from the luminescence signal: first calculate the average of the positive control (maximum signal control) and the negative control (minimum signal control).
was used to calculate the rate of inhibition of the cells by different concentrations of the compounds. The IC50 of the compound on cell activity inhibition was calculated by fitting a log(inhibitor) vs. response-Variable slope model to GraphPad Prism 6. The fitted equation was: Y=Bottom+(Top-Bottom)/(1+10^((Log IC50−X)*HillSlope)), wherein Y represents the rate of inhibition and X represents the concentration of the known compound after Log.
(§3) The results of the in vitro anti-cell proliferation assays of H1299 and MIA Paca-2 for the example compounds according to the method described above are shown in Table 2, wherein the IC50 of each compound was determined and classified according to the description as follows: […]

H1299 cells = assay: Anti-proliferative effect on H1299 cells by Cell Titer-Glo; assay type: cell-based; conditions: 3 days
Experimental: as §1
1. Evaluation of the Anti-Proliferative Effect of Compounds on H1299 Cells by the Cell Titer-Glo Method
as §2
The 384-well plates were removed from the cell incubator and allowed to equilibrate for 1h to room temperature. 25 ul of Cell Titer-Glo assay was added to each well, lysed on a shaker for 2 min and then read out (Luminescence) using a BMG PHERAStar after 10 min incubation. Calculate the inhibition rate from the luminescence signal: first calculate the average of the positive control (maximum signal control) and the negative control (minimum signal control).
was used to calculate the rate of inhibition of the cells by different concentrations of the compounds. The IC50 of the compound on cell activity inhibition was calculated by fitting a log(inhibitor) vs. response-Variable slope model to GraphPad Prism 6. The fitted equation was: Y=Bottom+(Top−Bottom)/(1+10^((Log IC50−X)*HillSlope)), where Y represents the rate of inhibition and X represents the concentration of the known compound after Log.
as §3

Wee1 protein = biological target: T1, Wee1 protein (Homo sapiens, UniProt P30291); assay: Binding of compound to Wee1 protein and Tracer 178 by TR-FRET (Wee1 kinase inhibitory activity); conditions: 15 nM WEE1, 50 nM Tracer 178, read-out: IC50 (inhibitory activity against Wee1 kinase)
T1 construct: purchased Thermo Fisher PR7373A
T1 sequence (P30291 whole entry): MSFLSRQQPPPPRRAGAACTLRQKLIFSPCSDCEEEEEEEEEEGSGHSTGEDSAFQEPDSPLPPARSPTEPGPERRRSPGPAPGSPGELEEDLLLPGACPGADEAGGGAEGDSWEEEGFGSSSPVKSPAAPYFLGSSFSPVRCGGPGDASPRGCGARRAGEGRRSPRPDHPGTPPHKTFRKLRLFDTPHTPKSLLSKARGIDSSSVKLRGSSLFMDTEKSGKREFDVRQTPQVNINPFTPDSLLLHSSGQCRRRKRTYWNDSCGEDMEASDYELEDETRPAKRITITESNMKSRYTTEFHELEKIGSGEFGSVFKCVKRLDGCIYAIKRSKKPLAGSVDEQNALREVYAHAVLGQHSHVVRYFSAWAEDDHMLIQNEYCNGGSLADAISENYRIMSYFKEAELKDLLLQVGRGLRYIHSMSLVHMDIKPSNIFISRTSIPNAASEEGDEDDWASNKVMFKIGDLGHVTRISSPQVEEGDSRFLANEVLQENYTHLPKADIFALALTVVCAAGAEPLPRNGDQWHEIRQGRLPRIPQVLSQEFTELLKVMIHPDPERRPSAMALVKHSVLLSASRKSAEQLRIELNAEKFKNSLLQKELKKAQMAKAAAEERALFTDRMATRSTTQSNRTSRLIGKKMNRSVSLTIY
Experimental: First, solutions of the compounds in different concentration gradients were prepared. The compounds were dissolved in DMSO and the compounds were diluted 4 folds with a total of 10 dose points and 2 parallel replicates for each concentration.
The IC50 for inhibition of enzyme activity by the compounds was then calculated using GraphPad Prism 6 and fitted with a log (inhibitor) vs. response-Variable slope mode. The fitting equation was: Y=Bottom+(Top−Bottom)/(1+10^((Log IC50−X)*HillSlope)), wherein Y represents the percentage of residual enzyme activity known and X represents the known concentration of compound after the logarithm.

[1] = Liver microsomes in vitro stability (mouse); assay type: in vitro ADME; conditions: read-out: T1/2/min
Experimental: 1. Preparation of Working Solution:
Microsomes were taken out from the −80° C. refrigerator, rapidly melted in a 37° C. water bath and placed on ice until ready to use. The test article was diluted with DMSO to prepare a 10 mM stock solution, and then diluted with acetonitrile to a 0.5 mM secondary stock solution. […] NADPH was diluted with Buffer C to a working solution of 6 mM for the starter solution. An acetonitrile solution containing an internal standard was prepared as the precipitant, and Verapamil-HCl was chosen as the internal standard at a concentration of 4 ng/ml.
2. Experimental Procedure:
A round-bottom well plate was taken, noted as the reaction plate, and the prepared working solution for each compound was dispensed into the well plate according to the number of replicates and time points (0 h samples were also added to the reaction plate), 30 μL/well; the plate was incubated at 37° C. for 10 min. A separate plate with pointed bottom wells, noted as a precipitation plate, was added with 135 μL precipitant per well; 0 h samples were transferred to the plate after 10 min incubation and 15 μL of starter solution was added; the plate was placed on ice before centrifugation.
The diluted starter solution was added in sufficient quantity to the dispensing plate to facilitate the multichannel pipette aspiration operation.
The reaction was carried out on a warm incubation shaker and 15 μL of starter solution/sample is added to the plate using a multichannel pipette. The reaction was mixed with a slight shake to initiate the reaction, which was accurately timed and recorded using a timer. In general, samples with shorter reaction times are initiated late and vice versa early, allowing sufficient time for multiple plate manipulation to terminate the reaction. For example, as for the four experiments of 5, 15, 30, and 60 min, the 60 min experiment was started first, and the 5 min experiment was started later, so as to leave sufficient time for the 5 min group.
After the reaction time had elapsed, all the solution in the plate was aspirated using the multichannel pipette and added to the precipitation plate to terminate the reaction at that point in time. After all reactions had been terminated, the plates were shaken for ten minutes on a plate shaker at 600 rpm to precipitate the protein. The plate was centrifuged at 4° C. for 15 minutes at maximum rpm. 80 μL of supernatant was taken, 320 μL of pure water was added and mixed for LC-MS analysis.

[2] = Homo sapiens, NCI-H1299, 72 h, read-out: H1299 (IC50, inhibition of proliferation in vitro)

Row | SMILES | IC50 (MIA PaCa2 cells) | IC50 (H1299 cells; [2]) | IC50 (Wee1 protein) | half-life at 1 µM [1] | IC50 (H1299 cells; listed as Compound61, read-out: H1299 (IC50, inhibition of proliferation in vitro))
1 | C=CCn1c(=O)c2cnc(Nc3ccc(N4C5CCC4CN(C)C5)cc3)nc2n1-c1cccc(C(C)(C)O)n1 [Compound 25] | 1 to 2 µM | 1 to 2 µM | 0.005 to 0.01 µM | 14.1 min | 
2 | C=CCn1c(=O)c2cnc(Nc3ccc(N4CCC(N5CC6CC5CN6C)CC4)cc3)nc2n1-c1cccc(C(C)(C)O)n1 (stereo not shown) [Compound 18] | 0.1 to 1 µM | 2 to 5 µM | 0.005 to 0.01 µM | > 120 min | 
3 | C=CCn1c(=O)c2cnc(Nc3ccc(N4CC5CCC(C4)N5C)cc3)nc2n1-c1cccc(C(C)(C)O)n1 [Compound 28] | 0.1 to 1 µM | 0.1 to 1 µM | 0.005 to 0.01 µM | 15 min | 
4 | C=CCn1c(=O)c2cnc(Nc3ccc(N4CC5CC(C4)N5C)cc3)nc2n1-c1ccc2oc(=O)n(CC)c2c1 [Compound 54] | 2 to 5 µM | 2 to 5 µM | 0.005 to 0.01 µM | 77 min | 
5 | C=CCn1c(=O)c2cnc(Nc3ccc(C(=O)N(C)C4CN5CCC4CC5)cc3)nc2n1-c1cccc(C(C)(C)O)n1 (stereo not shown) [Compound 62] | 0.1 to 1 µM | 1 to 2 µM | 0.005 to 0.01 µM | 25.1 min | 
6 | C=CCn1c(=O)c2cnc(Nc3ccc(N(C)[C@@H]4CN5CCC4CC5)cc3)nc2n1-c1cccc(C(C)(C)O)n1 [Compound 19] | > 10 µM | > 10 µM | < 0.005 µM | 48.1 min | 
7 | C=CCn1c(=O)c2cnc(Nc3ccc(N4CC5CC(CN(C)C5)C4)cc3)nc2n1-c1cccc(C(C)(C)O)n1 [Compound 23] | 2 to 5 µM | > 10 µM | 0.01 to 0.1 µM | 38.7 min | 
8 | C=CCn1c(=O)c2cnc(Nc3ccc(N4CC5CC(C4)N5C)cc3)nc2n1-c1ccc2cnn(CC)c2n1 [Compound 61] |  |  | < 0.005 µM | > 120 min | 2 to 5 µM
9 | C=CCn1c(=O)c2cnc(Nc3ccc(C4(O)CCN(C)CC4)cc3)nc2n1-c1cccc(C(C)(C)O)n1 [Compound 35] | 1 to 2 µM | 2 to 5 µM | 0.01 to 0.1 µM |  | 
10 | C=CCn1c(=O)c2cnc(Nc3ccc(N4C[C@@H]5C[C@H]4CN5CCF)cc3)nc2n1-c1cccc(C(C)(C)O)n1 [Compound 44] | 0.1 to 1 µM | 0.1 to 1 µM | 0.005 to 0.01 µM |  | 
11 | C=CCn1c(=O)c2cnc(Nc3ccc(N4CCC(N(C)C5CN6CCC5CC6)CC4)cc3)nc2n1-c1cccc(N=S(C)(C)=O)n1 (stereo not shown) [Compound 8] |  | 5 to 10 µM | 0.005 to 0.01 µM | > 120 min | 
12 | C=CCn1c(=O)c2cnc(Nc3ccc(N4CC5CC(C4)N5C)cc3)nc2n1-c1cccc(C(C)(C)OC)n1 [Compound 60] | 0.1 to 1 µM | 0.1 to 1 µM | 0.005 to 0.01 µM |  | 
13 | C=CCn1c(=O)c2cnc(Nc3ccc(-c4cc(=O)[nH]c5c4N4CCC5CC4)cc3)nc2n1-c1cccc(C(C)(C)O)n1 [Compound 16] | > 10 µM | > 10 µM | 0.01 to 0.1 µM |  | 
14 | C=CCn1c(=O)c2cnc(Nc3ccc(N4CC5CC(C4)N5C)c(F)c3)nc2n1-c1cccc(C(C)(C)O)n1 [Compound 78] | 1 to 2 µM | > 10 µM | 0.01 to 0.1 µM |  | 
15 | C=CCn1c(=O)c2cnc(Nc3cnn(-c4ccc(N(C)C)cc4)c3)nc2n1-c1cccc(C(C)(C)O)n1 [Compound 45] | 5 to 10 µM | > 10 µM | 0.01 to 0.1 µM |  | 
16 | C=CCn1c(=O)c2cnc(Nc3ccc([C@@H]4C[C@]45C(=O)C4CCN5CC4)cc3)nc2n1-c1cccc(N=S(C)(C)=O)n1 [Compound 47b] | 2 to 5 µM | 2 to 5 µM | 0.01 to 0.1 µM |  | 
17 | C=CCn1c(=O)c2cnc(Nc3ccc(C4CC45C(=O)C4CCN5CC4)cc3)nc2n1-c1cccc(C(C)(C)O)n1 (stereo not shown) [Compound 32] | 2 to 5 µM | 2 to 5 µM | 0.01 to 0.1 µM |  | 
18 | C=CCn1c(=O)c2cnc(Nc3ccc(N4CC5CC(C4)N5C4COC4)cc3)nc2n1-c1cccc(C(C)(C)O)n1 [Compound 58] | 0.1 to 1 µM | 0.1 to 1 µM | 0.005 to 0.01 µM |  | 
19 | C=CCn1c(=O)c2cnc(Nc3ccc(N4CC5CC(C4)N5C(C)=O)cc3)nc2n1-c1cccc(C(C)(C)O)n1 [Compound 68] | 0.1 to 1 µM | 1 to 2 µM | 0.01 to 0.1 µM |  | 
20 | C=CCn1c(=O)c2cnc(Nc3ccc(N(C)[C@H]4CN5CCC4CC5)cc3)nc2n1-c1cccc(C(C)(C)O)n1 [Compound 29] | > 10 µM | > 10 µM | 0.005 to 0.01 µM |  | 
21 | C=CCN1C2CC1CN(c1ccc(Nc3ncc4c(=O)n(CC=C)n(-c5cccc(C(C)(C)O)n5)c4n3)cc1)C2 [Compound 64] | 0.1 to 1 µM | 0.1 to 1 µM | 0.01 to 0.1 µM |  | 
22 | C=CCn1c(=O)c2cnc(Nc3ccc(C4CC45C(=O)C4CCN5CC4)cc3)nc2n1-c1cccc(N=S(C)(C)=O)n1 (stereo not shown) [Compound 47] | 0.1 to 1 µM | 0.1 to 1 µM | < 0.005 µM |  | 
23 | C=CCn1c(=O)c2cnc(Nc3ccc(N4CC5CC(C4)N5CCO)cc3)nc2n1-c1cccc(C(C)(C)O)n1 [Compound 66] | 0.1 to 1 µM | 0.1 to 1 µM | 0.005 to 0.01 µM |  | 
